For assay [1], the target named is T1, Mitogen-activated protein kinase kinase kinase 13 (Homo sapiens) (UniProt O43283).
T1 sequence (whole entry): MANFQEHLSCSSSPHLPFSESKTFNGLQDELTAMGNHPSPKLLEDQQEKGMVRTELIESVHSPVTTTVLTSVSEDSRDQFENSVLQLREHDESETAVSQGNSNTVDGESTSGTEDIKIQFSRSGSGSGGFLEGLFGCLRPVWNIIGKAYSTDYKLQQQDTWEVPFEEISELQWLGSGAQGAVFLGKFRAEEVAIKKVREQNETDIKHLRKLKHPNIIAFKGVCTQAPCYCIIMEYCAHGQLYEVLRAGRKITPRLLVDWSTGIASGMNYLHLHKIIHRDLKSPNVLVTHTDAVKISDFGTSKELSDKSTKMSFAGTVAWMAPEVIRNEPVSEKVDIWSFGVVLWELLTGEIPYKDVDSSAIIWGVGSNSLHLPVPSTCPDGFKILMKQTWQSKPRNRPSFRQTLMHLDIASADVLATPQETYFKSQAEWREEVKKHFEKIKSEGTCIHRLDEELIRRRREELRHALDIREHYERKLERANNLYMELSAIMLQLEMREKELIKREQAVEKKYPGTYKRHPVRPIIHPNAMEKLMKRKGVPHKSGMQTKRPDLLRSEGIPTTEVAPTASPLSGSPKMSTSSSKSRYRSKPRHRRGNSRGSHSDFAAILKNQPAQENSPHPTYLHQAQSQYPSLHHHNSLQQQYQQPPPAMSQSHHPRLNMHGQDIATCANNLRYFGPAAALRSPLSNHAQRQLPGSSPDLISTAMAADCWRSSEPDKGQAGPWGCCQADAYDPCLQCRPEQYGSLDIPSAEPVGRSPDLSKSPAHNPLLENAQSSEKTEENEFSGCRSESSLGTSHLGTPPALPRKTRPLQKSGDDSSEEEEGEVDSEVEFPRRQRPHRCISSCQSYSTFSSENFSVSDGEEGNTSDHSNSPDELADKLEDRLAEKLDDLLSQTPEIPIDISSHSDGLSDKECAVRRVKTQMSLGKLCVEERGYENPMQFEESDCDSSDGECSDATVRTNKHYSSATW
Kind of assay: Selectivity interaction (KinomeScan (DiscoverX)) EUB0000607a MAP3K13. Particulars: at 10 µM.

The target of assay [2] is Protein kinase C delta type (Homo sapiens) (UniProt Q05655). In words: Selectivity interaction (KinomeScan (DiscoverX)) EUB0000607a PRKCD. Particulars: at 10 µM.
Assay [3] has as its target Phosphatidylinositol 4-kinase beta (Homo sapiens, UniProt Q9UBF8). Kind of assay: Selectivity interaction (KinomeScan (DiscoverX)) EUB0000666a PI4KB. The settings on record: at 10 µM.
Assay [4] concerns the target T2, Aurora kinase A (Homo sapiens) (UniProt O14965).
T2 sequence (whole entry): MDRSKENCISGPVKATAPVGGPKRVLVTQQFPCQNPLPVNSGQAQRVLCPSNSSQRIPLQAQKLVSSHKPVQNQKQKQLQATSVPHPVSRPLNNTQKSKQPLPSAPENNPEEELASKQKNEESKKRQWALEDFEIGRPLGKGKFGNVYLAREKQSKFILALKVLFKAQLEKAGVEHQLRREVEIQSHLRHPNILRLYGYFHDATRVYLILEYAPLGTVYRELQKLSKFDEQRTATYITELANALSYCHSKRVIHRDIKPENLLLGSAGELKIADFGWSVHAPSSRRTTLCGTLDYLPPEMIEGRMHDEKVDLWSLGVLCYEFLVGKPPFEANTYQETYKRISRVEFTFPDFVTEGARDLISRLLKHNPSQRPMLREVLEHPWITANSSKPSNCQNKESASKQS
In words: Selectivity interaction (KinaseProfiler screening (Millipore)) EUB0000601a STK6. Particulars: at 3 µM.

The target in assay [5] is T3, Tyrosine-protein kinase TXK (Homo sapiens) (UniProt P42681).
T3 sequence (whole entry): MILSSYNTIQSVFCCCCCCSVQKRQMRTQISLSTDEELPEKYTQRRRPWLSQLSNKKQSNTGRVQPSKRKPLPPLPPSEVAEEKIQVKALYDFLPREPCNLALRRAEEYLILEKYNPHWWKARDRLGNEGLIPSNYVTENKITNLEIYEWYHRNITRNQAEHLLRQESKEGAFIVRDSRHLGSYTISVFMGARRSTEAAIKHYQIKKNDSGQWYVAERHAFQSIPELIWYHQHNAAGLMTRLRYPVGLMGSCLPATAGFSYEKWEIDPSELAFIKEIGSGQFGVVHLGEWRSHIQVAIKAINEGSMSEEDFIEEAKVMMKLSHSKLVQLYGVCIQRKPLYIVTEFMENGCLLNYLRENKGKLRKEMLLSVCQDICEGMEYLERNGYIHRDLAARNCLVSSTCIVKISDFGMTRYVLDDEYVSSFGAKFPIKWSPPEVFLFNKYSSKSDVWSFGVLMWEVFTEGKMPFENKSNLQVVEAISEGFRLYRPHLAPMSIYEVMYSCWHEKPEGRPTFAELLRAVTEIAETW
In words: Selectivity interaction (Kinase panel (Invitrogen)) EUB0000639a TXK. Particulars: at 200 nM.

Assay [6] deals with Ephrin type-A receptor 4 (Homo sapiens, UniProt P54764). The settings on record: at 10 µM.
For assay [7], the target named is Phosphatidylinositol 4,5-bisphosphate 3-kinase catalytic subunit beta isoform (Homo sapiens) (UniProt P42338). In words: Selectivity interaction (KinomeScan (DiscoverX)) EUB0000695a PIK3CB. The settings on record: at 100 nM.
Assay [8] addresses Mitogen-activated protein kinase 1 (Homo sapiens, UniProt P28482). Kind of assay: Selectivity interaction (Upstate Kinase Profiler service (Millipore)) EUB0000056c MAPK1. Particulars: at 1 µM.
The target of assay [9] is Serine/threonine-protein kinase 33 (Homo sapiens) (UniProt Q9BYT3). In words: Selectivity interaction (Upstate Kinase Profiler service (Millipore)) EUB0000056c STK33. Particulars: at 1 µM.
Assay [10] concerns the target T4, Mitogen-activated protein kinase 13 (Homo sapiens) (UniProt O15264).
T4 sequence (whole entry): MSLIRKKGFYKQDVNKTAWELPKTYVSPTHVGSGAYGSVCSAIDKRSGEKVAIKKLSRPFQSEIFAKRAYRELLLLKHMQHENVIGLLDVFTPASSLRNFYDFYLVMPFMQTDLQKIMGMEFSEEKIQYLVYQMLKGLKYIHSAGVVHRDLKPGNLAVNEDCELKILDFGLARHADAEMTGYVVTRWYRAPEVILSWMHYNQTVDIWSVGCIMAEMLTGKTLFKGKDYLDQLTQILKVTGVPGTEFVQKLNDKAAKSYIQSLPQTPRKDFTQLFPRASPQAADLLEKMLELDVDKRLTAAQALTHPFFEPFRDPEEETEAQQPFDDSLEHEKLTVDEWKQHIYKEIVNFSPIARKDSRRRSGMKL
In words: Selectivity interaction (Upstate Kinase Profiler service (Millipore)) EUB0000056c MAPK13. Particulars: at 1 µM.

Serine/threonine-protein kinase 33 (Homo sapiens), sequence (Q9BYT3 whole entry, looked up): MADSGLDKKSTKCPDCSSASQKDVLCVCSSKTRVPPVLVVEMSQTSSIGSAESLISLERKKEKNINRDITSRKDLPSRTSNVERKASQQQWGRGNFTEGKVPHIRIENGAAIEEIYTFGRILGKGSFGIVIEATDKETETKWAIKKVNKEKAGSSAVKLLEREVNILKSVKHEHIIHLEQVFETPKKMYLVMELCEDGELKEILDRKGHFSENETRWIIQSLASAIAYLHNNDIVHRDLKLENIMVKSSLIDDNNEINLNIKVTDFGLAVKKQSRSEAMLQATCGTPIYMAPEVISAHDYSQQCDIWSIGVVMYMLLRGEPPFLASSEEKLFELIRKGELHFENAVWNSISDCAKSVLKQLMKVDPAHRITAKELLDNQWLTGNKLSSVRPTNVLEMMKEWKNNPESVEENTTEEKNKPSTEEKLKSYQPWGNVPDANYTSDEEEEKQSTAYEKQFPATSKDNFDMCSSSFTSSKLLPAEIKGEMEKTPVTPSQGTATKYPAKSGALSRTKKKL
Ephrin type-A receptor 4, sequence (P54764 whole entry, canonical isoform): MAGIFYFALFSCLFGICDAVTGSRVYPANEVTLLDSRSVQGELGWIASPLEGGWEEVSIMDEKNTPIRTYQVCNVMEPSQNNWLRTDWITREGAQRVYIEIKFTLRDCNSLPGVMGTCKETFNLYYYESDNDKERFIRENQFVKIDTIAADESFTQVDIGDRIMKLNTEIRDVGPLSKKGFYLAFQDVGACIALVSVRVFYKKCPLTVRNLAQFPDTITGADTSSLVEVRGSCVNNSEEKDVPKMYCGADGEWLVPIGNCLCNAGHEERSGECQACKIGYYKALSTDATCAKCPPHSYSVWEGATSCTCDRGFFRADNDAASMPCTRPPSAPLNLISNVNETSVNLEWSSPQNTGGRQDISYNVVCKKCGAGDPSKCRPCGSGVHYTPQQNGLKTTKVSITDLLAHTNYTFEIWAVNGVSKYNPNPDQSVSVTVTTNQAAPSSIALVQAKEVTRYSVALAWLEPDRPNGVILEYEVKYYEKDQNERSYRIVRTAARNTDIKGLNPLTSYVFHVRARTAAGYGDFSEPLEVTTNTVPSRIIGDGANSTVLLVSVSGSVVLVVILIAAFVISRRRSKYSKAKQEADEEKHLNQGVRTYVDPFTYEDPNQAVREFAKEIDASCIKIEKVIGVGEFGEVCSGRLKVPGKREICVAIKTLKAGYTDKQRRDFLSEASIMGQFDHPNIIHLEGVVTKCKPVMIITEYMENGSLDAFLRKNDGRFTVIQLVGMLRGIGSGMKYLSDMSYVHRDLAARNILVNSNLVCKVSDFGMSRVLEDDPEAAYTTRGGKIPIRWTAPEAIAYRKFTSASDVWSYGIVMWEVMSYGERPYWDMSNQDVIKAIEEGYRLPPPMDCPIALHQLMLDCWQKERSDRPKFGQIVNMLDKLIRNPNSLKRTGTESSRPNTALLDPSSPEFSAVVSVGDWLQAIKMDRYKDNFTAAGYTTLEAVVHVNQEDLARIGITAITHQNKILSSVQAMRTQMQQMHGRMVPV
Protein kinase C delta type (Homo sapiens), sequence (Q05655 whole entry, looked up): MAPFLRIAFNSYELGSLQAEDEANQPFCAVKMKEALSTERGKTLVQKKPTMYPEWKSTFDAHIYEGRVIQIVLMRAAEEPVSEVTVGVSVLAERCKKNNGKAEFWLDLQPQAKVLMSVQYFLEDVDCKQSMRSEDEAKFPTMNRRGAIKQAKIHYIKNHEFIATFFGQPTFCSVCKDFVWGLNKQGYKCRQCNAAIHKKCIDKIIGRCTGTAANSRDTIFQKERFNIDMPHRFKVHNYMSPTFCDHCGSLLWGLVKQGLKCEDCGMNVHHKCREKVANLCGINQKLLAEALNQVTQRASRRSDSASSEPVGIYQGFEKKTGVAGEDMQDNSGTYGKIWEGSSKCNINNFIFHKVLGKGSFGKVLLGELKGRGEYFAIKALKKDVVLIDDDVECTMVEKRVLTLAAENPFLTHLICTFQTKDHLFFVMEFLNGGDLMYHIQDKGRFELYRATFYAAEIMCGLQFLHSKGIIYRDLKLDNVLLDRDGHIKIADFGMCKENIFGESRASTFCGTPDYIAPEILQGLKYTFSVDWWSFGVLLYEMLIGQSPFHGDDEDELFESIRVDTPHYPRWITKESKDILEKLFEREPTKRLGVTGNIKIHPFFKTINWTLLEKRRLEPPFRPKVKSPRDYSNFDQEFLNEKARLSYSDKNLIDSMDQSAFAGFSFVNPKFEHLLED
Phosphatidylinositol 4,5-bisphosphate 3-kinase catalytic subunit beta isoform (Homo sapiens), sequence (P42338 whole entry, looked up, canonical isoform): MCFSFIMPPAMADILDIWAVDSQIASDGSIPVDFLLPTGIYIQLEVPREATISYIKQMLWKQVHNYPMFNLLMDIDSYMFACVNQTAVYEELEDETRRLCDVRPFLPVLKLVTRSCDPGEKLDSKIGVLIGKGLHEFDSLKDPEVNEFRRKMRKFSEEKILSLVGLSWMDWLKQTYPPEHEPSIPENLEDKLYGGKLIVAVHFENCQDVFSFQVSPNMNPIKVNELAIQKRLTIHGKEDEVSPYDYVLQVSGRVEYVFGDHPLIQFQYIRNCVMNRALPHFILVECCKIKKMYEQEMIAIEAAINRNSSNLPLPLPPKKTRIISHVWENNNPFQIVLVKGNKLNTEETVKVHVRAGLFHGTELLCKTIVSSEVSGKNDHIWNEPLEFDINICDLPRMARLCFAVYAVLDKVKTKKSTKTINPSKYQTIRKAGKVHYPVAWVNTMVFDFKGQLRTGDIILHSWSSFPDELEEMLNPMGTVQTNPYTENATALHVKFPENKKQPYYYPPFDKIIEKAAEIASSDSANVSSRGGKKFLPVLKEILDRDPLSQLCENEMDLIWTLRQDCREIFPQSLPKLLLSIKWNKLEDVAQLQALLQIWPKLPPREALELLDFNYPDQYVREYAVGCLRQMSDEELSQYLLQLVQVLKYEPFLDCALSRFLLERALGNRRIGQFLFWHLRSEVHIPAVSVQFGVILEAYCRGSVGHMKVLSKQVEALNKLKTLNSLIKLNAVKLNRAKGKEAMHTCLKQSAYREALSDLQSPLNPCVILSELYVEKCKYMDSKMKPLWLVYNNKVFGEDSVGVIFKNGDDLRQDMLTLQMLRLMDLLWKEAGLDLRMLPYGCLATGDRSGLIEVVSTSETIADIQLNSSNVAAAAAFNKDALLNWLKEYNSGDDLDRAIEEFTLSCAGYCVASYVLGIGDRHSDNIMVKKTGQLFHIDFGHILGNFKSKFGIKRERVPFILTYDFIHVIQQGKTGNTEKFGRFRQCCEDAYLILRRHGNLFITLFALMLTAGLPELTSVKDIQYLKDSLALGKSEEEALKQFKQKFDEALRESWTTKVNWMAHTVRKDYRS
Mitogen-activated protein kinase 1, sequence (P28482 whole entry): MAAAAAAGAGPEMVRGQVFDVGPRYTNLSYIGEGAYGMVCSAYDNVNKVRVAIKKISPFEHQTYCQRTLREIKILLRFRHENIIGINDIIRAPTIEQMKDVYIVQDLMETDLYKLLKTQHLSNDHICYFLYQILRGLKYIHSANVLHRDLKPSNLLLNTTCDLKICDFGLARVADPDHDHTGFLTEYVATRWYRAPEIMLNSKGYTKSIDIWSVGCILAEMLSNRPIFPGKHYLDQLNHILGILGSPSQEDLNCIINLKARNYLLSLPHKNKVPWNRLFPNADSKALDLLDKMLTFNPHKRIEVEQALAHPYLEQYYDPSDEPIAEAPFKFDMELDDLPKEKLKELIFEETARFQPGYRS
Phosphatidylinositol 4-kinase beta, sequence (Q9UBF8 2-816 limits assumed): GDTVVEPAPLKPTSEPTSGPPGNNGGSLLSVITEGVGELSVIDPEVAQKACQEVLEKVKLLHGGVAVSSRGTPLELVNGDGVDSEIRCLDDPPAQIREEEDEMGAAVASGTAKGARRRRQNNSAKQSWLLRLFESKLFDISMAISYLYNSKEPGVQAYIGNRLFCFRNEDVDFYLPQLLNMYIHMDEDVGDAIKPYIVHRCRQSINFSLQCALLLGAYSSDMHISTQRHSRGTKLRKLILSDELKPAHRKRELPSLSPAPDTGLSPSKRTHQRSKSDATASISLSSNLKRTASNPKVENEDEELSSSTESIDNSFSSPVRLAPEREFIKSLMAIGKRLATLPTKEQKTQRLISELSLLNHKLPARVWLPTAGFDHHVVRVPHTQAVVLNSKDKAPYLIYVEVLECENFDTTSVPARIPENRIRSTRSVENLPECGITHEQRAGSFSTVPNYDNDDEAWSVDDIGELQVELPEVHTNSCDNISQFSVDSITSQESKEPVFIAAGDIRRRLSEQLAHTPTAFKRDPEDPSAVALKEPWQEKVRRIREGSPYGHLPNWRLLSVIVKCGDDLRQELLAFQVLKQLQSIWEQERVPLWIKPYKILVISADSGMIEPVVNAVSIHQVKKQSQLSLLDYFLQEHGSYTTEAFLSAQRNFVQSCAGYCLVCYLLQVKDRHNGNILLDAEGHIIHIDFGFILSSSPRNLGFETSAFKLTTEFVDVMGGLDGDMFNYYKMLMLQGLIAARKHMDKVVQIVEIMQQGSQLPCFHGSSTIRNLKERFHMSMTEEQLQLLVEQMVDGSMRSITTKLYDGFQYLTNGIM

As for `CNC(=O)Nc1ccc(-c2nc(N3CC4CCC(C3)O4)c3cnn(C4CCC5(CC4)OCCO5)c3n2)cc1`, the % of control in assay [1] was found to be 82%; in assay [2] it was 100%.

The molecule `O=C(NOC[C@H](O)CO)c1ccc(F)c(F)c1Nc1ccc(I)cc1F` yielded a % of control in assay [3] of 100%.

Molecule `CCc1cc(Nc2nccc(-c3c(-c4ccc(OC)c(C(=O)Nc5c(F)cccc5F)c4)nc4ccccn34)n2)c(OC)cc1N1CCC(N2CCN(S(C)(=O)=O)CC2)CC1` displayed a % of inhibition in [4] of 76%.

Turning to `CC[C@@H]1[C@H](F)C(=O)N[C@@H]1COc1nccc2cc(C(N)=O)c(OC)cc12` [ZIMLOVISERTIB], the % of inhibition in assay [5] worked out at 9.25%.

In assay [6], `CCN(CC)CCCCNc1ncc2cc(-c3cc(OC)cc(OC)c3)c(NC(=O)NC(C)(C)C)nc2n1` gave a % of control of 100%.

Regarding `Cc1cc(F)c(C(=O)Nc2cccc(-c3nncn3C(C)C)n2)cc1-n1cnc(C2CC2)c1`, the % of control in [7] is 100%.

As to `Cc1ccc(-c2ccc3c(ccc4sc5c(c43)NC[C@@H](C)NC5=O)n2)cn1`, the % of inhibition in [8] was determined as 1%; in assay [9], 39%; in assay [10], 6%.

The values are drawn from ChEMBL document CHEMBL5465560, “Selectivity Literature for EUbOPEN Chemogenomic Library” (2024).
